Test results from patent US20030068615A1, “Polypeptides that bind HIV gp120 and related nucleic acids, antibodies, compositions, and methods of use” (priority 1999, published 2003).

Target: HIV-1LAI envelope gp120 (Human immunodeficiency virus type 1 group M subtype B, UniProt P03377)
Format: binding
Settings: CCR5 18-mer scan; radiolabeled HIV-1LAI gp120; background subtracted

Compared with NCKRLKSMTDIYLLNLAI [CCR5 segment 57-74], NPIIYAFVGEKFRNYLLV [CCR5 segment 293-] is higher in “Counts per 20′ Average-background” value: 25 counts per 20′ for the first, 162 counts per 20′ for the second.

Compared with NRLDQAMQVTETLGMTHC [CCR5 segment 273-], NYYTSEPCQKINVKQIAA [CCR5 segment 13-30] is lower in “Counts per 20′ Average-background” value: 10 counts per 20′ for the first, 6 counts per 20′ for the second.

First: QAMQVTETLGMTHCCINP [CCR5 segment 277-]
Second: QEAPERASSVYTRSTGEQ [CCR5 segment 329-]
The “Counts per 20′ Average-background” value of the first is lower: 81 counts per 20′ for the first, 84 counts per 20′ for the second.

Compared with QEFFGLNNCSSSNRLDQA [CCR5 segment 261-], QKHIAKRFCKCCSIFQQE [CCR5 segment 313-] is lower in “Counts per 20′ Average-background” value: 63 counts per 20′ for the first, 23 counts per 20′ for the second.

With QKINVKQIAARLLPPLYS [CCR5 segment 21-38] the “Counts per 20′ Average-background” value was 20 counts per 20′.

Same assay, conditions: CXCR4 18-mer scan; background subtracted, empty control 0

First: NANFNKIFLPTIYSIIFL [CXCR4 segment 33-50]
Second: NKIFLPTIYSIIFLTGIV [CXCR4 segment 37-54]
The “radioactive counts recorded in twenty minutes” value (from here on “radioactive counts recorded”) of the first is higher: 173 counts for the first, 138 counts for the second.

NWYFGNFLCKAVHVIYTV was tested, and the “radioactive counts recorded” value was 96 counts.

Same assay, conditions: CXCR4 18-mer scan; empty control 412

First: NANFNKIFLPTIYSIIFL [CXCR4 segment 33-50]
Second: NKIFLPTIYSIIFLTGIV [CXCR4 segment 37-54]
The “radioactive counts recorded” value of the first is higher: 585 counts for the first, 550 counts for the second.

NWYFGNFLCKAVHVIYTV was tested, and the “radioactive counts recorded” value was 508 counts.

Same assay, conditions: Panel A, 21-mers of CD4; empty control 515 and 617

First: PLAFTVEKLTGSGELWWQAER
Second: PLIIKLNKIEDSDTYICEVED
The “COUNTS of radiolabeled gp120 retained” value of the first is lower: 2647 counts for the first, 20145 counts for the second.

In the case of QKASSIVYKKEGEQVEFSFPL, the “COUNTS of radiolabeled gp120 retained” value is reported as 24959 counts.

Same assay, conditions: Panel B, 15-mers and 18-mers of CD4; empty control 575

First: NFPLIIKNLKIEDSD
Second: NFPLIIKNLKIEDSDTYI
The “COUNTS of radiolabeled gp120 retained” value of the first is higher: 654 counts for the first, 627 counts for the second.

Compared with NLKIEDSDTYICEVE, NSDTHLLQGQSLTLT is lower in “COUNTS of radiolabeled gp120 retained” value: 1160 counts for the first, 631 counts for the second.

Going from NSDTHLLQGQSLTLTLES to PLIIKNLKIEDSDTY, the “COUNTS of radiolabeled gp120 retained” value falls from 1726 counts to 661 counts.

Going from PLIIKNLKIEDSDTYICE to QGNFPLIIKNLKIED, the “COUNTS of radiolabeled gp120 retained” value falls from 624 counts to 509 counts.

Going from QGNFPLIIKNLKIEDSDT to QKEEVQLLVFGLTAN, the “COUNTS of radiolabeled gp120 retained” value rises from 564 counts to 3770 counts.

For QKEEVQLLVFGLTANSDT, the “COUNTS of radiolabeled gp120 retained” value was 3671 counts.

Same assay, conditions: Panel C, 15-mers and 18-mers of CD4; empty control 556

Going from NQKKVEFKIDIVVLA to NQKKVEFKIDIVVLAFQK, the “COUNTS of radiolabeled gp120 retained” value rises from 860 counts to 889 counts.

First: PLAFTVEKLTGSGEL
Second: PLAFTVEKLTGSGELWWQ
The “COUNTS of radiolabeled gp120 retained” value of the first is lower: 612 counts for the first, 650 counts for the second.

Compared with QKASSIVYKKEGEQV, QKASSIVYKKEGEQVEFS is higher in “COUNTS of radiolabeled gp120 retained” value: 519 counts for the first, 602 counts for the second.

QKKVEFKIDIVVLAF was tested, and the “COUNTS of radiolabeled gp120 retained” value was 1333 counts.

Same assay, conditions: Panel D, 9-mers and 12-mers of CD4; empty control […]

Compared with NFPLIIKNL, NFPLIIKNLKIE is higher in “COUNTS of radiolabeled gp120 retained” value: 561 counts for the first, 647 counts for the second.

First: NLKIEDSDT
Second: NLKIEDSDTYIC
The “COUNTS of radiolabeled gp120 retained” value of the first is lower: 512 counts for the first, 639 counts for the second.

Going from NSDTHLLQG to NSDTHLLQGQSL, the “COUNTS of radiolabeled gp120 retained” value rises from 561 counts to 585 counts.

Compared with PLIIKNLKI, PLIIKNLKIEDS is lower in “COUNTS of radiolabeled gp120 retained” value: 697 counts for the first, 565 counts for the second.

Going from QGNFPLIIK to QGNFPLIIKNLK, the “COUNTS of radiolabeled gp120 retained” value rises from 508 counts to 533 counts.

Compared with QGQSLTLTL, QKEEVQLLV is higher in “COUNTS of radiolabeled gp120 retained” value: 594 counts for the first, 636 counts for the second.

For QKEEVQLLVFGL, the “COUNTS of radiolabeled gp120 retained” value was 1785 counts.

Same assay, conditions: Panel E, 9-mers and 12-mers of CD4; empty control 571

Going from NQKKVEFKI to NQKKVEFKIDIV, the “COUNTS of radiolabeled gp120 retained” value falls from 597 counts to 532 counts.

First: PLAFTVEKL
Second: PLAFTVEKLTGS
The “COUNTS of radiolabeled gp120 retained” value of the first is higher: 597 counts for the first, 528 counts for the second.

Compared with QKASSIVYK, QKASSIVYKKEG is higher in “COUNTS of radiolabeled gp120 retained” value: 494 counts for the first, 596 counts for the second.

First: QKKVEFKID
Second: QKKVEFKIDIVV
The “COUNTS of radiolabeled gp120 retained” value of the first is lower: 575 counts for the first, 595 counts for the second.

Same assay, conditions: STRL33 18-mer scan; background subtracted; first of two count columns

First: NSIYLVISIFYHKLQSLT [STRL33 segment 49-66]
Second: PFWAYAGIHEWVFGQVMC
The “radioactive counts recorded” value of the first is lower: 1255.5 counts for the first, 7262.5 counts for the second.

Going from PQIIYGNVFNLDKLICGY to “PVLYAFVSLKFRKNFWKL [STRL33 segment 285-302]”, the “radioactive counts recorded” value rises from −18.5 counts to 1859.5 counts.

Going from QAKRMTWGKVTSLLIWVI to “QKHRSLKIIFLVMAVFLL [STRL33 segment 225-242]”, the “radioactive counts recorded” value rises from −71.5 counts to 810.5 counts.

Same assay, conditions: STRL33 18-mer scan; background subtracted; second of two count columns

Compared with “NSIYLVISIFYHKLQSLT [STRL33 segment 49-66]”, PFWAYAGIHEWVFGQVMC is higher in “radioactive counts recorded” value: 1378.5 counts for the first, 7537.5 counts for the second.

Compared with PQIIYGNVFNLDKLICGY, “PVLYAFVSLKFRKNFWKL [STRL33 segment 285-302]” is higher in “radioactive counts recorded” value: −37.5 counts for the first, 2147.5 counts for the second.

First: QAKRMTWGKVTSLLIWVI
Second: QKHRSLKIIFLVMAVFLL [STRL33 segment 225-242]
The “radioactive counts recorded” value of the first is lower: −31.5 counts for the first, 814.5 counts for the second.

Same assay, conditions: STRL33 amino terminus; 9-mer starting at the first residue of the printed sequence; background subtracted

First: NDSSQEEHQAFLQFS
Second: QAFLQFSKV
The “Binding Results For Window Length (counts bound-background), 9” value of the first is lower: 180 counts for the first, 2600 counts for the second.

In the case of QEEHQAFLQFSK, the “Binding Results For Window Length (counts bound-background), 9” value is reported as 1109 counts.

Same assay, conditions: STRL33 amino terminus; 12-mer starting at the first residue of the printed sequence; background subtracted

First: NDSSQEEHQAFLQFS
Second: QEEHQAFLQFSK
The “Binding Results For Window Length (counts bound-background), 12” value of the first is lower: 497 counts for the first, 5672 counts for the second.

Same assay, conditions: STRL33 amino terminus; 15-mer starting at the first residue of the printed sequence; background subtracted

NDSSQEEHQAFLQFS was tested, and the “Binding Results For Window Length (counts bound-background), 15” value was 6160 counts.

Same assay, conditions: human CD4 21-mer scan; empty control 2075

First: NKEAKVSKREKAVWVLNPEAG
Second: NLTLALEAKTGKLHQEVNLVV [human CD4 296-316]
The “number of radioactive decays (counts) counted” value (shortened to “number of radioactive decays”) of the first is higher: 1735 counts for the first, 1676 counts for the second.

Going from “PFRELLLVLQLALLPAATQGK [human CD4, printed 16-26]” to “PKLMLSLKLENKEAKVSKREK [human CD4 336-356]”, the “number of radioactive decays” value falls from 4356 counts to 1656 counts.

Compared with PMALIVLGGVAGLLLFIGLGI, “QAERASSSKSWITFDLINKEV [human CD4 241-261]” is lower in “number of radioactive decays” value: 3067 counts for the first, 2588 counts for the second.

“QALPQYAGSGNLTLALEAKTG [human CD4 286-306]” was tested, and the “number of radioactive decays” value was 2364 counts.
